In patent US8778437B2, “Taste improving substances” (Givaudan Nederland Services B.V., priority 2004, dated 2014):

System: panel
Assay: Panel comparison of carbonated lemonade with and without test substance (Example 3)
Assay type: in vivo
Conditions: 0.03 wt.% of spray dried sample of Example 2 in carbonated lemonade (10% sugar, 1200 ppm citric acid, 100 ppm ascorbic acid, pH 3)
Description: A basic carbonated lemonade containing 10% sugar, 1200 ppm citric acid and 100 ppm ascorbic acid, was prepared. The pH of the lemonade was 3. This was used as the control. To the test lemonade the spray dried sample described in Example 2 was added in an amount of 0.03 wt. %. The two lemonades were compared by a panel.

Q: With CC(O)C(=O)NCCOP(=O)(O)O (stereo not shown) [N-lactoyl-ethanolaminie-phosphate, N-Lactoyl ethanolamine phosphate] as the compound, how does the “taste description of lemonade compared with control” value read?
A: more acidic, more natural, more juicy, more complex
